The NIST ThermoML archive (doi:10.1021/je500881x)
± gives the expanded uncertainty stated by the source.

Experiment: refractive index (Na D-line) (dimensionless); wn = mass fraction of the nth substance listed
Conditions: 288.15 K, 101 kPa, Liquid, Standard Abbe refractometry

refractive index (w1 = 0.5794) | refractive index (w1 = 0.4704) | SMILES
1.4892 ± 0.0004 |  | [Br-].[Br-].[Ca+2] [calcium bromide] + O
 | 1.4196 ± 0.0004 | [Br-].[Na+] [sodium bromide] + O
